Measured values taken from patent US20240287564A1, “ACHOLETIN BIOPOLYMERS AND METHODS FOR ENZYMATIC SYNTHESIS” (THE UNIVERSITY OF BRITISH COLUMBIA, priority 2021, published 2024).
One block for each molecule: values may come before it.

How the values were obtained:
AchP [1] = target: T1, AchP (Acholeplasma laidlawii, UniProt A9NH41); experiment: Purified AchP donor and acceptor specificity screen; assay type: biochemical; conditions: 3 h room temperature, absorbance 655 nm
Procedure: AchP was heterologously expressed, purified and screened, in the absence of cell lysate, against an extended set of donors and acceptors, including additional N-acetamido sugars, using a phosphorylase screening method described previously that couples the chromogenic development of molybdenum blue to the liberation of free phosphate during reverse phosphorolysis^39,41 (FIG. 1A). When incubated with Glc1-P as donor, AchP was active in the presence of the acceptors GlcNAc, GlcNAc-β1-pNP, GalNAc and GlcNAc-β1,4-GlcNAc, while no activity was detected with the non-acetylated glucosamine and galactosamine. With GlcNAc1-P as donor, AchP was active with all acceptors that contained an N-acetyl moiety, as well as with glucose and glucosamine, but not galactose and galactosamine.
Thirty-six donor and acceptor combinations were done with purified AchP in a 25 μL reaction volume. 10 μL buffer (200 mM HEPES pH 7.0, 200 mM NaCl, 10 mM MgSO4, 400 mM sodium molybdate) was combined with 5 μL water, 2.5 μL donor (100 mM Glc1-P, 100 mM GlcNAc1-P or 100 mM GalNAc1-P) and 2.5 acceptor (500 mM Glc, 400 mM GlcN, 500 mM GlcNAc, 100 mM GlcNAc-β1-pNP, 500 mM Gal, 500 mM GalN, 500 mM GalNAc, 100 mM GalNAc-α1-pNP, 100 mM Glc-β1,3-Glc, 100 mM GlcNAc-β1,4-GlcNAc, 500 mM ManNAc or no acceptor) in a 200 μL PCR tube. 5 μL of purified AchP (0.2 mg/mL) was added to each reaction which were then incubated for 3 h at room temperature. Each 25 μL reaction was transferred to a separate well of a 96-well plate. 75 μL of development solution was added to each well then incubated for 5 min at room temperature before the reaction was stopped by adding 50 μL of quenching solution. Absorbance at 655 nm was measured with a BioTek Synergy H1 Hybrid™ microtiter plate reader.

[2] = target: GH101 endo-α-N-acetylgalactosamindase (EngSP) (Streptococcus pneumoniae, UniProt Q8DR60); conditions: only minimal aglycone release in controls
Chain of GH101 endo-α-N-acetylgalactosamindase (EngSP) (Q8DR60 40-1738 limits assumed): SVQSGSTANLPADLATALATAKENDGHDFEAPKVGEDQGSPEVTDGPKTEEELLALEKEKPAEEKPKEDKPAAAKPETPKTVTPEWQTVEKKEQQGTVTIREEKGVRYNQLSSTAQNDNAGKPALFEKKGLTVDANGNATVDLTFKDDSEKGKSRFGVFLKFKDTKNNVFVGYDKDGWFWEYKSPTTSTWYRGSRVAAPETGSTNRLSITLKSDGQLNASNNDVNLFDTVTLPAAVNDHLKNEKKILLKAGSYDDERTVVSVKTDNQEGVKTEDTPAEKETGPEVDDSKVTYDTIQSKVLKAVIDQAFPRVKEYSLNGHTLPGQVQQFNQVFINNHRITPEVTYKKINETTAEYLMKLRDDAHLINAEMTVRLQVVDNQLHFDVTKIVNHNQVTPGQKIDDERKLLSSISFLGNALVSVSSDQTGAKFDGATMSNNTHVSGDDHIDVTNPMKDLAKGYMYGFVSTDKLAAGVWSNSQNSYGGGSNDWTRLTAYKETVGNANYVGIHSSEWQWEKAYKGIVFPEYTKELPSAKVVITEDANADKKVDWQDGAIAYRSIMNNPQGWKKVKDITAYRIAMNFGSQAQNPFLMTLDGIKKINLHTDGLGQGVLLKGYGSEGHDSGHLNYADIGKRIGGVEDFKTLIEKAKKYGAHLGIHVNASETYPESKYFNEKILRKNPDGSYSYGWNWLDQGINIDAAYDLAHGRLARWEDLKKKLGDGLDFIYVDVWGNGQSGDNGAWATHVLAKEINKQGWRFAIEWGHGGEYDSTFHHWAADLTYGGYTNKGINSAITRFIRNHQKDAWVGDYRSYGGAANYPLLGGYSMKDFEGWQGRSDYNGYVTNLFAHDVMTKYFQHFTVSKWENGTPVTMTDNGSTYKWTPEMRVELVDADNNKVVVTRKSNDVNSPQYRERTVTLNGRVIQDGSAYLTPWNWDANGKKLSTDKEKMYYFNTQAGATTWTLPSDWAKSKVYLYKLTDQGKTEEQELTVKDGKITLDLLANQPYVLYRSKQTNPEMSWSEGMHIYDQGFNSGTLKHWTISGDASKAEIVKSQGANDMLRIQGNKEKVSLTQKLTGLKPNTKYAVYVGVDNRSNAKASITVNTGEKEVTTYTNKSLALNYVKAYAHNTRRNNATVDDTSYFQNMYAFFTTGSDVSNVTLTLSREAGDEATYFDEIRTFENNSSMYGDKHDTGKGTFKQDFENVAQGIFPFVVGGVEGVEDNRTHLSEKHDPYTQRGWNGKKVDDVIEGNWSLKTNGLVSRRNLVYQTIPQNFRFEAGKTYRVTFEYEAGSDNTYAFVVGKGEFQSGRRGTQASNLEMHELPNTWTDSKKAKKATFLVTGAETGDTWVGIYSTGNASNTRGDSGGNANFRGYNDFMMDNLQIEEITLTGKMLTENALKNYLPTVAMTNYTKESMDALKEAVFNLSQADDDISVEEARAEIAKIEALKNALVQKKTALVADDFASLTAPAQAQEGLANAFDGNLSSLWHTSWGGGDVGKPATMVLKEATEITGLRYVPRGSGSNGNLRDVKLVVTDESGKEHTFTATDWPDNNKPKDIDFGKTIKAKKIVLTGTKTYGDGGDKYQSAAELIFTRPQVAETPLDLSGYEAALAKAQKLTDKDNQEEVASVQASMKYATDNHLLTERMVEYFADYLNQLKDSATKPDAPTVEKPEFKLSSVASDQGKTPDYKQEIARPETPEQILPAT
Procedure: Both GlcNAc-β1,3-GalNAc-MU and GlcNAc-β1,3-GalNAc-pNP were assayed as potential substrates for the core 3 T-antigen cleaving enzyme endo-α-N-acetylgalactosaminidase from Streptococcus pneumoniae R6 (EngSP)^47,66. For GlcNAc-β1,3-GalNAc-MU, in a 96-well plate 2 μL of the AchP reaction was combined with 48 μL reaction buffer A and reaction initiated by adding 0.4 μL spGH101 (10 mg/mL). Release of MU was monitored continuously in a BioTek Synergy H1 Hybrid™ microtiter plate reader (Ex. 365 nm, Em. 440 nm) (FIG. 6). For GlcNAc-β1,3-GalNAc-pNP, in a 96-well plate 10 μL of the AchP reaction was combined with 39 μL reaction buffer A and initiated by adding 1 μL EngSP (10 mg/mL). Release of pNP was monitored continuously in a BioTek Synergy H1 Hybrid™ microtiter plate reader (absorbance 400 nm) (FIG. 6).

AchP [3] = target: T1, AchP; experiment: AchP forward phosphorolysis product analysis (TLC); assay type: biochemical; conditions: with phosphate
Procedure: (A) AchP products with GlcNAc1-P (donor) and GlcNAc (GNAc1), GlcNAc-β1,4-GlcNAc (GNAc2), or GlcNAc(-β1,4-GlcNAc)3 (GNAc4) (acceptors) were analyzed by TLC, where the products are outlined in black boxes. (B) AchP forward phosphorolysis product analysis with GlcNAc-β1,4-GlcNAc and phosphate and the reverse phosphorolysis with Glc1-P and GlcNAc was include as a control reaction.
Of the six activities described to date in the GH94 family only the N,N′-diacetylchitobiose phosphorylases (ChbP) are known to use GlcNAc1-P as donor, transferring only to monosaccharide GlcNAc acceptors and not to di- or trisaccharides. The other five types utilize Glc1-P. The bacteria from which both characterized ChbPs were discovered are native to marine environments where chitin, a polysaccharide of β1,4-linked GlcNAc and the primary structural component of the exoskeleton of marine invertebrates, is common. Presumably these ChbPs act on disaccharides released from chitin by chitinases. AchP on the other hand is able to utilize GlcNAc-β1,4-GlcNAc and GlcNAc(-β1,4-GlcNAc)3 as acceptors performing iterative addition of N-acetylglucosaminyl residues (FIG. 4A). As noted earlier, we initially anticipated that AchP was a chitin phosphorylase. […]

AchP [4] = target: T1, AchP; experiment: AchP reverse phosphorolysis kinetics (phosphate release, molybdenum blue); assay type: biochemical; conditions: as donor (GalNAc1-P) or acceptor (glucose); reasonable substrate and enzyme concentrations
AchP [5] = target: T1, AchP; experiment: as above; assay type: biochemical
Procedure: (§1) Kinetic parameters for AchP reverse phosphorolysis were determined using the phosphate release method described previously^44. In brief, phosphate release was coupled to the formation of molybdenum blue, which can be quantified by measuring absorbance at 655 nm. Phosphate concentration was determined using a standard curve ranging between 0 and 10 mM phosphate. Kinetic parameters for AchP were determined with four donor and acceptor combinations: (A) Glc1-P and GlcNAc, (B) Glc1-P and GalNAc, (C) GlcNAc1-P and GlcNAc, and (D) GlcNAc1-P and GalNAc. Donor concentration was held constant at 10 mM while the concentrations of the acceptors were varied (as described below). Reactions were initiated by adding 5 μL of 0.25 mg/mL AchP to 10 μL 2× buffer (200 mM HEPES pH 7.0, 200 mM NaCl, 10 mM MgSO4 and 400 mM sodium molybdate), 2.5 μL of 100 mM donor, 2.5 μL of […] acceptor and 5 μL water. Reactions were stopped at the times (t) indicated below by boiling for 5 min, then 20 μL from each reaction was transferred to a 96-well plate. Molybdenum blue formation was initiated by adding 90 μL of color development solution (0.1 N HCl and 0.24% sodium ascorbate) then incubated for 30 min at room temperature. The color development reaction was stopped by adding 90 μL of quenching solution (68 mM sodium citrate and 2% acetic acid). Absorbance at 655 nm was measured with a BioTek Synergy H1 Hybrid™ microtiter plate reader. All reactions were performed in triplicate and acceptor concentrations were chosen to encompass apparent Km value where possible. (A) 10 mM Glc1-P; 0, 1, 5, 10, 25, 50, 100, 200 and 300 mM GlcNAc; t=2 min 45 s. (B) 10 mM Glc1-P; 0, 5, 25, 50, 100, 150, 200, 300 and 380 mM GalNAc; t=5 min. (C) 10 mM GlcNAc1-P; 0, 0.1, 0.25, 0.5, 1, 2, 5, 10, 25 and 50 mM GlcNAc; t=3 min. (D) 10 mM GlcNAc1-P; 0, 5, 10, 25, 50, 100, 150, 200 and 300 mM GalNAc; t=3 min. Non-linear regression was performed using GraphPad Prism™ version 6.0. For (A) and (C) data were fit using the Michaelis-Menten equation incorporating substrate inhibition: For (B) and (D) data were fit using the standard Michaelis-Menten equation: […]

[6] = substrate: CC(=O)NC1C(O)[C@@H](O)C(CO)O[C@@H]1O; experiment: as above; assay type: biochemical, Acholeplasma laidlawii; conditions: other: donor αGlcNAc1-P 10 mM; acceptor concentration varied; pH 7.0
Procedure: as §1

[7] = substrate: CC(=O)NC1C(O)[C@H](O)C(CO)O[C@H]1O; experiment: as above; assay type: biochemical, Acholeplasma laidlawii; conditions: acceptor concentration varied, pH 7.0
Procedure: as §1

AchP activity with acceptor (AchP [1]; Glc1-P as donor): active
Molecule: CC(=O)N[C@H]1[C@H](Oc2ccc([N+](=O)[O-])cc2)O[C@H](CO)[C@@H](O)[C@@H]1O [GlcNAc-β1-pNP]

Molecule: CC(=O)NC1C(OC2C(O)C(CO)OC(Oc3ccc4c(C)cc(=O)oc4c3)C2NC(C)=O)OC(CO)C(O)C1O (stereo not drawn) [GlcNAc-β1,3-GalNAc-α1-MU]
aglycone release after incubation with EngSP [2]: release of both pNP and MU aglycones could be detected

AchP activity with acceptor (AchP [1]; Glc1-P as donor): active
phosphorolysis (substrate cleavage) (AchP [3]): no substrate cleavage could be detected
Molecule: CC(=O)N[C@H]1[C@H](O[C@H]2[C@H](O)[C@@H](NC(C)=O)C(O)O[C@@H]2CO)O[C@H](CO)[C@@H](O)[C@@H]1O (stereo partly drawn) [GlcNAc-β1,4-GlcNAc, N,N′-diacetylchitobiose]

AchP activity with acceptor (AchP [1]; Glc1-P as donor): no activity
AchP activity with acceptor (AchP [1]; GlcNAc1-P as donor): not
Molecule: N[C@H]1C(O)O[C@H](CO)[C@H](O)[C@@H]1O (stereo partly drawn) [galactosamine]

Activities (kinetic parameters not determined) (AchP [4]): too low
Molecule: CC(=O)N[C@H]1C(OP(=O)(O)O)O[C@H](CO)[C@H](O)[C@@H]1O (stereo partly drawn) [GalNAc1-P]

AchP activity with acceptor (AchP [1]; Glc1-P as donor): no activity
Molecule: OC[C@H]1O[C@@H](O[C@H]2[C@H](O)[C@@H](CO)OC(O)[C@@H]2O)[C@H](O)[C@@H](O)[C@@H]1O (stereo partly drawn) [laminaribiose]

Molecule: CC(=O)NC1C(OC2C(O)C(CO)OC(Oc3ccc([N+](=O)[O-])cc3)C2NC(C)=O)OC(CO)C(O)C1O (stereo not drawn) [GlcNAc-β1,3-GalNAc-α1-pNP]
aglycone release after incubation with EngSP [2]: release of both pNP and MU aglycones could be detected

AchP activity with acceptor (AchP [1]; Glc1-P as donor): no activity
AchP activity with acceptor (AchP [1]; GlcNAc1-P as donor): active
Molecule: N[C@H]1C(O)O[C@H](CO)[C@@H](O)[C@@H]1O (stereo partly drawn) [glucosamine]

Km value lower than with Glc1-P as donor (AchP [5]; GlcNAc as acceptor): ~10 fold
kcat greater than with Glc1-P as donor (AchP [5]; GlcNAc as acceptor): 2 fold
Molecule: CC(=O)N[C@H]1[C@@H](OP(=O)(O)O)O[C@H](CO)[C@@H](O)[C@@H]1O [GlcNAc1-P, α-N-acetylglucosamine 1-phosphate]

kcat (AchP [5]; donor αGlc1-P 10 mM, acceptor concentration varied): 12.5 ± 0.5 s⁻¹
AchP activity with acceptor (AchP [1]; Glc1-P as donor): active
Molecule: CC(=O)NC1C(O)[C@@H](O)C(CO)O[C@@H]1O (stereo partly drawn) [GalNAc, N-acetylgalactosamine]

Ki (AchP [5]; donor αGlcNAc1-P 10 mM, substrate inhibition fit): 27.1 ± 3.6 mM
AchP activity with acceptor (AchP [1]; Glc1-P as donor): active
Molecule: CC(=O)NC1C(O)[C@H](O)C(CO)O[C@H]1O (stereo partly drawn) [GlcNAc, N-acetyl-glucosamine]

Molecule: O=C[C@H](O)[C@@H](O)[C@@H](O)[C@H](O)CO [galactose, D-galactose]
AchP activity with acceptor (AchP [1]; GlcNAc1-P as donor): not

B1: AchP (Acholeplasma laidlawii PG-8A) (protein)
chain: MKLKQDVISIYQKISLFESGQLNITKLASGAYYLDDELTLITDPVNSGARFPYAVNGMTIWAYASGYISINHSSYYILPPNLEGKEPFLDFFGIEQDGNNTYPVSLLGVSERNDEIENKRYTVFSKNIAYYITVTKNFLYAVTVYISKDFKIYFNTVAHNLTGETKQITLSSFFNMLFKYDSGESIETKWFKKVSYENNMFIYDAPEDIDRHTRIENYGVVKRHLHTKPKNIQNTTSRIDYVGKRYRSVRNALSIRSLKFEKAPLVTNFTDTAINADLINYEVKAYDTIISSYRIETCHDKDTLNKMMASDLTDKEIKKVYEGLSNTQSYDFDNFGISFKGVNDNRVDDKVLNQFLKLVNYQIHFSSLSSNSGTVFLGVRDVMQQLESSLIWDRKNVRSKILEVLSFIDPSGLPPRQYALPPKEGNPRMDLRPFIDQGLWIISTLHTYLAYTEDYDILNEVCGYYERIEPNSAKKSKVENSVLEHLIRVTNYLVSNIDPSTYGLKALYGDWNDALDGLGLIEGSSGYGNGVSVMATLQLYENLERMIEILKLVDPQNEHINTYEVVRHNLSLGINKYAVVIKQDEKRVLHGWGHDRSYFVGSFNDPDGHSRNSLTSNAFYIISDMIKNTPEMKPHLLHAFHNLDSKYGLKTFDPAMQDFHGFGRIINLPPGTAENAATYVHATLFGVLALYMLGEGDFANEQVLKVLPITKKEMSTSPFIMPNSYVHNEELNMDGESMSDWYTGSANTLLKTLIRGLFGLEVKFDHLRLRPSKAFFSKEATLMVSIGNKLTRIVYKNNNNGNRTFKLNGKVIEAKLDTLSGLLYIDINKSILEHQNVIHIQD
Km [6]: 71.4 ± 4.1 mM
kcat [6]: 46.7 ± 0.9 s⁻¹
kcat/Km [6]: 700 ± 200 M⁻¹ s⁻¹
Km ([7]; other: donor αGlc1-P 10 mM): 29.9 ± 3.7 mM
kcat ([7]; other: donor αGlc1-P 10 mM): 24.2 ± 1.6 s⁻¹
kcat/Km ([7]; other: donor αGlc1-P 10 mM): 800 ± 400 M⁻¹ s⁻¹
Km ([7]; other: donor αGlcNAc1-P 10 mM): 3.5 ± 0.4 mM
kcat ([7]; other: donor αGlcNAc1-P 10 mM): 50.8 ± 3.2 s⁻¹
kcat/Km ([7]; other: donor αGlcNAc1-P 10 mM): 14500 ± 8000 M⁻¹ s⁻¹
